# Tested on: Mycobacterium tuberculosis
# Assay: Antimycobacterial activity against Mycobacterium tuberculosis H37Rv assessed as growth inhibition after 7 days by resazurin method
# Assay type: functional
# Settings: 168 h
row,Compound,MIC [µg/mL]
1,CC(C)[C@@H]1OC(=O)[C@H](C)[C@H](O)[C@H](Cc2cccnc2)NC(=O)[C@@H](NC(=O)c2ncccc2O)[C@@H](C)OC1=O,12.5
2,CC/C(C)=C1\OC(=O)[C@H](C)[C@H](O)[C@H](Cc2cccnc2)NC(=O)[C@@H](NC(=O)c2ncccc2O)[C@@H](C)OC1=O [PYRIDOMYCIN],0.39
3,CC(C)[C@H]1OC(=O)[C@H](C)[C@H](O)[C@H](Cc2cccnc2)NC(=O)[C@@H](NC(=O)c2ncccc2O)[C@@H](C)OC1=O,1.56

# — ChEMBL document CHEMBL2321872, “Synthesis and antimycobacterial activity of 2,1'-dihydropyridomycins” (ACS Med Chem Lett, 2013)
